Assay results: patent US20060148732A1, “Inhibition of NF-kappaB by triterpene compositions” (priority 2000, published 2006)

Legend:
human tumor cell lines = assay: Cytotoxicity / anti-tumor activity on panel of tumor cell lines; type: cell-based
Method: Each of the extracts was then screened against a panel of human tumor and non-tumor cells including human ovarian cancer cell lines, T-leukemic cells, human epidermoid cells, human breast cancer cells, human prostate cancer cells, human foreskin fibroblast cells, human endothelial cells, and human renal cancer cells. The cells were first plated in 96-well plates for 18-24 hours at 37° C. The cells were then exposed to varying concentrations of the plant extracts, and incubated for 72 hours at 37° C., and stained with either MTT (3-(4,5-dimethylethiazol-2-yl)-2,5-diphenyl tetrazolium bromide; Sigma Chemical Co.) for 4 hours or crystal violet (Sigma Chemical Co.) for 20 minutes at room temperature. The MTT plates received lysis buffer (20% sodium dodecyl sulfate in 50% DMF) and were incubated for an additional 6 hours before taking an OD reading at 570 nm. The crystal violet plates were washed, dye was extracted for 3-4 hours with Sorenson's buffer (0.1 M sodium citrate (pH 4.2), 50% v/v ethanol), and the plates were read at 570-600 nm (Mujoo et al., 1996). Cytotoxicity of the screened extracts was indicated by comparing the OD readings between the treated media alone and the cells treated with the plant extract. Percent cytotoxicity was calculated by 100-% of control, where % of control =[((OD of cells treated with plant extract (treated sample))/(OD of cells exposed to media alone (untreated sample)))×100].
The following human cancer cell lines were obtained from American Type Tissue Culture Collection (ATCC, Rockville, Md.). SK-OV-3 and OVCAR-3 (ovarian), Jurkat (T-cell leukemia), U-937 (histiocytic lymphoma), MDA-MB-468, MDA-MB-453, MDA-MB-435, SK-BP-3, MCF-7, MDA-MB-231, BT-20 (breast), LNCaP, PC-3, DU145 (prostate), 769-P, 786-O A498 (renal) and PANC-1 (pancreatic). HEY and Dov-13 (ovarian), cell lines were obtained from M. D. Anderson Cancer Center. The following non-transformed human cell lines MCF-10A and 10F (breast epithelium) were obtained from M. D. Anderson Cancer Center. Hs 27 (human foreskin fibroblasts) and L929 (mouse fibroblasts) were obtained from ATCC. […]

PARP in Jurkat cells = assay: Immunoblot analysis of PARP degradation; type: cell-based, human; settings: 2 μg/ml
Method: Apoptosis induced by F035 & D1 was examined by proteolytic cleavage of poly (ADP-ribose) polymerase (PARP). Jurkat cells (2×10^6/ml) were treated with F035 (2 μg/ml) and D1 (2 μg/ml) for different lengths of time. Cell lysates were prepared in buffer containing 20 mM HEPES, 250 mM NaCl, 2 mM EDTA, 0.1% NP-40, 2 μg/ml leupeptin, 2 μg/ml aprotinin, 0.5 μg/ml benzamidine, 1 mM DTT and 1 mM PMSF. Cellular proteins (60 μg/ml) were separated on a 7.5% SDS polyacrylamide gel and electrotransferred onto a nitrocellulose membrane. The membrane was probed first with monclonal anti-PARP antibody (PharMingen) and then with anti-mouse antibody conjugated to horse radish peroxidase (HRPO). Protein bands were detected by chemiluminescense (ECL, Amersham). The extent of cleavage of the 116-kDa PARP into 85-kDa and 41-kDa peptide products was used as a measure of apoptosis (Tewari et al., 1995).
Immunoblot Analysis of PARP Degradation. Induction of apoptosis was also examined by proteolytic cleavage of PARP (Nicholson and Thornberry, 1997). Jurkat cells (3×10^6) were treated with 2 μg/ml of F094, avicin D, or avicin G at 37° C. Cell lysates were prepared in a buffer containing 20 mM HEPES, 250 mM NaCl, 2 mM EDTA, 0.1% NP-40, 2 μg/ml leupeptin, 2 μg/ml aprotinin, 0.5 μg/ml benzamidine, 1 mM DTT, and 1 mM PMSF. Cellular proteins (60 μg/ml) were separated on a 7.5% SDS polyacrylamide gel and electrotransferred onto a nitrocellulose membrane. The membrane was probed first with monoclonal anti-PARP antibody (Pharmingen) and then with anti-mouse antibody conjugated to horseradish peroxidase (HRPO). Protein bands were detected by chemiluminescence (ECL). The appearance of an 85 kDa cleavage product was used as a measure of apoptosis.

[1] = test system: caspase-3 in Jurkat cells; assay: Assay for caspase-3 protease; type: cell-based, human; settings: for start of caspase 3 activation: post treatment
Method: Caspase-3 activity was measured as described earlier (Enari et al., 1995) with some modifications. Briefly, Jurkat cells (1×10^6/ml) were treated with F035, D1 & G1 for different lengths of time. Cytosolic extracts were prepared by repeated freeze thawing in 300 μl of extraction buffer (12.5 mM Tris, pH 7.0, 1 mM DTT, 0.125 mM EDTA, 5% glycerol, 1 μM PMSF, 1 μg/ml leupeptin, 1 μg/ml pepstatin and 1 μg/ml aprotinin). Cell lystates were diluted 1:2 with ICE buffer (50 mM Tris, pH 7.0, 0.5 mM EDTA, 4 mM DTT and 20% glycerol) and incubated with 20 μM of a caspase 3 substrate (acetyl-Asp-Glu-Val-Asp-aminomethylcoumarin) at 37° C. Caspase-3 activity was monitored by the production of fluorescent aminomethylcoumarin, which was measured at excitation 355 nm, emission 460 nm using Fluoroscan II (Labsystems, Helsinki, Finland).
Assay for Caspase-3 Protease. Caspase-3 activity was measured as described earlier (Martin et al, 1995) with some modifications. Briefly, Jurkat cells (1×10^6) were treated with F094, avicin D, or avicin G (2 μg/ml) at 37° C. Cytosolic extracts were prepared by repeated freeze thawing of the cells in 300 μl of an extraction buffer (12.5 mM Tris, pH 7.0, 1 mM DTT, 0.125 mM EDTA, 5% glycerol, 1 μM PMSF, 1 μg/ml leupeptin, 1 μg/ml pepstatin, and 1 μg/ml aprotinin). Cell lysates were diluted 1:2 with an ICE buffer (50 mM Tris, pH 7.0, 0.5 mM EDTA, 4 mM DTT, and 20% glycerol) and incubated with 20 μM of a caspase-3 substrate (acetyl-Asp-Glu-Val-Asp-aminomethylcoumarin) (Calbiochem, La Jolla, Calif.) at 37° C. Caspase-3 activity was monitored by the production of flourescent aminomethylcoumarin that was measured at excitation 355 nm and emission 460 nm, using Fluoroscan II (Labsystems, Helsinki, Finland).

Row | Structure (SMILES) | cytotoxicity compared with F035 and D1 (human tumor cell lines; most of the cells tested (Jurkat, C-2, 769-P, MDA-MB-231, MDA-MB-453)) | time to (almost) complete cleavage of PARP (PARP in Jurkat cells) [h] | time at which activation of caspase-3 is detectable ([1]; 2 μg/ml) [h] | start of caspase 3 activation [1] [h] | IC50 compared with F035 (human tumor cell lines; 769-P, MDA-MB-453, MDA-MB-231) | potency compared with F035 (human tumor cell lines; C-2 (HEY Variant) and Jurkat cells)
1 | C=C[C@](C)(O)CC/C=C(\C)C(=O)O[C@H]1[C@H](O)[C@@H](O)[C@H](O[C@@](C)(C=C)CC/C=C(\CO)C(=O)O[C@H]2C[C@]3(C(=O)O[C@@H]4O[C@H](CO)[C@@H](O)[C@H](O)[C@H]4O[C@@H]4O[C@@H](C)[C@H](O[C@@H]5O[C@@H](CO)[C@H](O)[C@H]5O)[C@@H](O[C@@H]5O[C@H](CO)[C@@H](O)[C@H](O)[C@H]5O)[C@H]4O)[C@H](O)C[C@]4(C)C(=CC[C@@H]5[C@@]6(C)CC[C@H](O[C@@H]7O[C@H](CO[C@@H]8O[C@H](C)[C@H](O)[C@H](O)[C@H]8O[C@@H]8OC[C@@H](O)[C@H](O)[C@H]8O)[C@@H](O)[C@H](O)[C@H]7NC(C)=O)C(C)(C)[C@@H]6CC[C@]54C)[C@@H]3CC2(C)C)O[C@@H]1C [Fraction G1] | significantly more cytotoxic than F035 and D1 | ≤ 4 | 2 to 4 | 4 | – | –
2 | C=C[C@](C)(O)CC/C=C(\CO)C(=O)O[C@H]1[C@H](O)[C@@H](O)[C@H](O[C@@](C)(C=C)CC/C=C(\CO)C(=O)O[C@H]2C[C@]3(C(=O)O[C@@H]4O[C@H](CO)[C@@H](O)[C@H](O)[C@H]4O[C@@H]4O[C@@H](C)[C@H](O[C@@H]5O[C@@H](CO)[C@H](O)[C@H]5O)[C@@H](O[C@@H]5O[C@H](CO)[C@@H](O)[C@H](O)[C@H]5O)[C@H]4O)[C@H](O)C[C@]4(C)C(=CC[C@@H]5[C@@]6(C)CC[C@H](O[C@@H]7O[C@H](CO[C@@H]8O[C@H](C)[C@H](O)[C@H](O)[C@H]8O[C@@H]8OC[C@@H](O)[C@H](O)[C@H]8O)[C@@H](O)[C@H](O)[C@H]7NC(C)=O)C(C)(C)[C@@H]6CC[C@]54C)[C@@H]3CC2(C)C)O[C@@H]1C [Fraction D1] | – | 8 to 16 | – | 4 | comparable to F035 | twice as potent as F035
